Laboratory results reported in patent publication US20220323406A1, “METHODS AND COMPOSITIONS FOR DIFFERENTIATING STEM CELLS” (Massachusetts Institute of Technology, priority 2019, published 2022).

Legend:
[1] = system: ENR+CD organoids (ISC to Paneth cell differentiation); test: Primary screen: basal (non-stimulated) lysozyme secretion LYZ.NS, 2.5-D 384-well ENR+CD organoid differentiation; assay type: cell-based, mouse; settings: primary screen; for Z.LYZ.NS: standard z score
Text: (§1) High-throughput screening.

[2] = system: ENR+CD organoids (ISC to Paneth cell differentiation); test: Primary screen: CCh-stimulated lysozyme secretion LYZ.S, 2.5-D 384-well ENR+CD organoid differentiation; assay type: cell-based, mouse; settings: primary screen
Text: as §1

ENR+CD organoids = test: Primary screen: ATP (CellTiter-Glo 3D, CTG) cell number/viability, 2.5-D 384-well ENR+CD organoids; settings: primary screen; for Z.CTG: standard z score;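 on all read-outs here: compounds given at plating and again on day 3 over a 6-day differentiation from ENR+CV stem-cell-enriched precursors, ATP measured on day 6, plate median as control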
[3] = 1st dose row of the treatment (0.08 uM by row order; dose not reprinted)
[4] = 2nd dose row of the treatment (0.40 uM by row order; dose not reprinted)
[5] = 3rd dose row of the treatment (2.00 uM by row order; dose not reprinted)
[6] = 4th dose row of the treatment (10.00 uM by row order; dose not reprinted)

C[C@H]1COC2=C1C(=O)C(=O)c1c2ccc2c1CCCC2(C)C [Cryptotanshinone]
Dose.FC.LYZ.NS ([1]; dose 0.08 uM): 0.143 log2 fold change
Dose.FC.LYZ.NS ([1]; dose 0.40 uM): −0.120 log2 fold change
Dose.FC.LYZ.NS ([1]; dose 2.00 uM): −0.182 log2 fold change
Dose.FC.LYZ.NS ([1]; dose 10.00 uM): −0.288 log2 fold change
Z.LYZ.NS ([1]; dose 0.08 uM): 1.243
Z.LYZ.NS ([1]; dose 0.40 uM): −1.047
Z.LYZ.NS ([1]; dose 2.00 uM): −1.585
Z.LYZ.NS ([1]; dose 10.00 uM): −2.506
Dose.FC.LYZ.S ([2]; dose 0.08 uM): 0.156 log2 fold change
Dose.FC.LYZ.S ([2]; dose 0.40 uM): −0.105 log2 fold change
Dose.FC.LYZ.S ([2]; dose 2.00 uM): −0.288 log2 fold change
Dose.FC.LYZ.S ([2]; dose 10.00 uM): −0.432 log2 fold change
Dose.FC.CTG (ENR+CD organoids; dose 0.08 uM): 0.199 log2 fold change
Dose.FC.CTG (ENR+CD organoids; dose 0.40 uM): −0.027 log2 fold change
Dose.FC.CTG (ENR+CD organoids; dose 2.00 uM): −0.184 log2 fold change
Dose.FC.CTG (ENR+CD organoids; dose 10.00 uM): −0.541 log2 fold change

CC(C)Oc1ccc(-c2cnc3c(-c4ccnc5ccccc45)cnn3c2)cc1 [DMH1]
Dose.FC.LYZ.NS ([1]; dose 0.08 uM): 0.018 log2 fold change
Dose.FC.LYZ.NS ([1]; dose 0.40 uM): 0.026 log2 fold change
Dose.FC.LYZ.NS ([1]; dose 2.00 uM): 0.014 log2 fold change
Dose.FC.LYZ.NS ([1]; dose 10.00 uM): −0.075 log2 fold change
Z.LYZ.NS ([1]; dose 0.08 uM): 0.155
Z.LYZ.NS ([1]; dose 0.40 uM): 0.231
Z.LYZ.NS ([1]; dose 2.00 uM): 0.124
Z.LYZ.NS ([1]; dose 10.00 uM): −0.657
Dose.FC.LYZ.S ([2]; dose 0.08 uM): 0.078 log2 fold change
Dose.FC.LYZ.S ([2]; dose 0.40 uM): 0.054 log2 fold change
Dose.FC.LYZ.S ([2]; dose 2.00 uM): 0.035 log2 fold change
Dose.FC.LYZ.S ([2]; dose 10.00 uM): −0.092 log2 fold change
Dose.FC.CTG (ENR+CD organoids; dose 0.08 uM): −0.031 log2 fold change
Dose.FC.CTG (ENR+CD organoids; dose 0.40 uM): −0.079 log2 fold change
Dose.FC.CTG (ENR+CD organoids; dose 2.00 uM): −0.002 log2 fold change
Dose.FC.CTG (ENR+CD organoids; dose 10.00 uM): −0.001 log2 fold change
Z.CTG (ENR+CD organoids; dose 0.08 uM): −0.075
Z.CTG (ENR+CD organoids; dose 0.40 uM): −0.188
Z.CTG (ENR+CD organoids; dose 2.00 uM): −0.004
Z.CTG (ENR+CD organoids; dose 10.00 uM): −0.003

CCc1c2c(nc3ccc(OC(=O)N4CCC(N5CCCCC5)CC4)cc13)-c1cc3c(c(=O)n1C2)COC(=O)[C@]3(O)CC [Irinotecan]
Dose.FC.LYZ.NS (log2 fold change) ([1]; dose 0.08 uM): −0.031
Z.LYZ.NS (standard z score) ([1]; dose 0.08 uM): −0.272
Dose.FC.LYZ.NS (log2 fold change) ([1]; dose 0.40 uM): −0.072
Z.LYZ.NS (standard z score) ([1]; dose 0.40 uM): −0.630
Dose.FC.LYZ.NS (log2 fold change) ([1]; dose 2.00 uM): −0.170
Z.LYZ.NS (standard z score) ([1]; dose 2.00 uM): −1.476
Dose.FC.LYZ.NS (log2 fold change) ([1]; dose 10.00 uM): −0.163
Z.LYZ.NS (standard z score) ([1]; dose 10.00 uM): −1.417
Dose.FC.LYZ.S (log2 fold change) ([2]; dose 0.08 uM): −0.004
Dose.FC.LYZ.S (log2 fold change) ([2]; dose 0.40 uM): −0.145
Dose.FC.LYZ.S (log2 fold change) ([2]; dose 2.00 uM): −0.247
Dose.FC.LYZ.S (log2 fold change) ([2]; dose 10.00 uM): −0.251
Dose.FC.CTG (log2 fold change) (ENR+CD organoids; dose 0.08 uM): −0.111
Dose.FC.CTG (log2 fold change) (ENR+CD organoids; dose 0.40 uM): −0.784
Dose.FC.CTG (log2 fold change) (ENR+CD organoids; dose 2.00 uM): −0.785
Dose.FC.CTG (log2 fold change) (ENR+CD organoids; dose 10.00 uM): −1.235

CC(C)NC[C@@H](C(=O)N1CCN(c2ncnc3c2[C@H](C)C[C@H]3O)CC1)c1ccc(Cl)cc1 [GDC-0068]
Dose.FC.LYZ.NS ([1]; dose 0.08 uM): 0.036 log2 fold change
Dose.FC.LYZ.NS ([1]; dose 0.40 uM): 0.054 log2 fold change
Dose.FC.LYZ.NS ([1]; dose 2.00 uM): −0.077 log2 fold change
Dose.FC.LYZ.NS ([1]; dose 10.00 uM): −0.185 log2 fold change
Z.LYZ.NS ([1]; dose 0.08 uM): 0.311
Z.LYZ.NS ([1]; dose 0.40 uM): 0.469
Z.LYZ.NS ([1]; dose 2.00 uM): −0.675
Z.LYZ.NS ([1]; dose 10.00 uM): −1.613
Dose.FC.LYZ.S ([2]; dose 0.08 uM): 0.076 log2 fold change
Dose.FC.LYZ.S ([2]; dose 0.40 uM): 0.087 log2 fold change
Dose.FC.LYZ.S ([2]; dose 2.00 uM): −0.059 log2 fold change
Dose.FC.LYZ.S ([2]; dose 10.00 uM): −0.319 log2 fold change
Dose.FC.CTG (ENR+CD organoids; dose 0.08 uM): 0.042 log2 fold change
Dose.FC.CTG (ENR+CD organoids; dose 0.40 uM): 0.118 log2 fold change
Dose.FC.CTG (ENR+CD organoids; dose 2.00 uM): 0.184 log2 fold change
Dose.FC.CTG (ENR+CD organoids; dose 10.00 uM): −0.100 log2 fold change
Z.CTG (ENR+CD organoids; dose 0.08 uM): 0.099
Z.CTG (ENR+CD organoids; dose 0.40 uM): 0.283
Z.CTG (ENR+CD organoids; dose 2.00 uM): 0.439
Z.CTG (ENR+CD organoids; dose 10.00 uM): −0.238

CC(C)N(CC[C@H](c1ccccc1)c1cc(CO)ccc1O)C(C)C [4CE°8C]
SSMD.LYZ.NS_Rep (strictly standardized mean difference) [1, 3]: 0.497
SSMD.LYZ.NS_Rep (strictly standardized mean difference) [1, 4]: 0.226
SSMD.LYZ.NS_Rep (strictly standardized mean difference) [1, 5]: 0.128
SSMD.LYZ.NS_Rep (strictly standardized mean difference) [1, 6]: −0.861
Dose.FC.LYZ.NS ([1]; dose 0.08 uM): 0.069 log2 fold change
Z.LYZ.NS (standard z score) ([1]; dose 0.08 uM): 0.601
Dose.FC.LYZ.NS ([1]; dose 0.40 uM): 0.047 log2 fold change
Z.LYZ.NS (standard z score) ([1]; dose 0.40 uM): 0.413
Dose.FC.LYZ.NS ([1]; dose 2.00 uM): 0.016 log2 fold change
Z.LYZ.NS (standard z score) ([1]; dose 2.00 uM): 0.138
Dose.FC.LYZ.NS ([1]; dose 10.00 uM): −0.095 log2 fold change
Z.LYZ.NS (standard z score) ([1]; dose 10.00 uM): −0.827
SSMD.LYZ.S_Rep (strictly standardized mean difference) [2, 3]: 0.194
Z.LYZ.S (standard z score) [2, 3]: 0.205
SSMD.LYZ.S_Rep (strictly standardized mean difference) [2, 4]: 0.053
Z.LYZ.S (standard z score) [2, 4]: 0.073
SSMD.LYZ.S_Rep (strictly standardized mean difference) [2, 5]: −0.217
Z.LYZ.S (standard z score) [2, 5]: −0.358
SSMD.LYZ.S_Rep (strictly standardized mean difference) [2, 6]: −0.707
Z.LYZ.S (standard z score) [2, 6]: −0.836
Dose.FC.LYZ.S ([2]; dose 0.08 uM): 0.032 log2 fold change
Dose.FC.LYZ.S ([2]; dose 0.40 uM): 0.011 log2 fold change
Dose.FC.LYZ.S ([2]; dose 2.00 uM): −0.055 log2 fold change
Dose.FC.LYZ.S ([2]; dose 10.00 uM): −0.129 log2 fold change
SSMD.CTG.Rep (strictly standardized mean difference) (ENR+CD organoids; [3]): −0.402
SSMD.CTG.Rep (strictly standardized mean difference) (ENR+CD organoids; [4]): 0.023
SSMD.CTG.Rep (strictly standardized mean difference) (ENR+CD organoids; [5]): −0.340
SSMD.CTG.Rep (strictly standardized mean difference) (ENR+CD organoids; [6]): −0.109
Dose.FC.CTG (ENR+CD organoids; dose 0.08 uM): −0.111 log2 fold change
Z.CTG (standard z score) (ENR+CD organoids; dose 0.08 uM): −0.265
Dose.FC.CTG (ENR+CD organoids; dose 0.40 uM): 0.007 log2 fold change
Z.CTG (standard z score) (ENR+CD organoids; dose 0.40 uM): 0.018
Dose.FC.CTG (ENR+CD organoids; dose 2.00 uM): −0.162 log2 fold change
Z.CTG (standard z score) (ENR+CD organoids; dose 2.00 uM): −0.387
Dose.FC.CTG (ENR+CD organoids; dose 10.00 uM): −0.039 log2 fold change
Z.CTG (standard z score) (ENR+CD organoids; dose 10.00 uM): −0.094
